What was measured:
Assay in all cases: radiometric filter-binding kinase assay
PIM1 (human) = PIM1 (human) (UniProt P11309)
PAK7 (human) = PAK7 (human) (UniProt Q9P286)
EPHA4 (human) = EPHA4 (human) (UniProt P54764)
MAP3K7 TAB1 (human) = MAP3K7 TAB1 (human) (UniProt Q15750+O43318)
CSK (human) = CSK (human) (UniProt P41240)
CSNK1D (human) = CSNK1D (human) (UniProt P48730)
BTK (human) = BTK (human) (UniProt Q06187)
DYRK2 (human) = DYRK2 (human) (UniProt Q92630)
EPHB2 (human) = EPHB2 (human) (UniProt P29323)
MKNK2 (human) = MKNK2 (human) (UniProt Q9HBH9)
MAPKAPK5 (human) = MAPKAPK5 (human) (UniProt Q8IW41)
IKBKB (human) = IKBKB (human) (UniProt O14920)
MAP3K11 (human) = MAP3K11 (human) (UniProt Q16584)
RIPK2 (human) = RIPK2 (human) (UniProt O43353)
MAPK9 (human) = MAPK9 (human) (UniProt P45984)
BRSK1 (human) = BRSK1 (human) (UniProt Q8TDC3)
PRKACA (human) = PRKACA (human) (UniProt P17612)
MAP2K2 (human) = MAP2K2 (human) (UniProt P36507)
Sequence of MAP2K2 (human) (P36507 whole entry, looked up): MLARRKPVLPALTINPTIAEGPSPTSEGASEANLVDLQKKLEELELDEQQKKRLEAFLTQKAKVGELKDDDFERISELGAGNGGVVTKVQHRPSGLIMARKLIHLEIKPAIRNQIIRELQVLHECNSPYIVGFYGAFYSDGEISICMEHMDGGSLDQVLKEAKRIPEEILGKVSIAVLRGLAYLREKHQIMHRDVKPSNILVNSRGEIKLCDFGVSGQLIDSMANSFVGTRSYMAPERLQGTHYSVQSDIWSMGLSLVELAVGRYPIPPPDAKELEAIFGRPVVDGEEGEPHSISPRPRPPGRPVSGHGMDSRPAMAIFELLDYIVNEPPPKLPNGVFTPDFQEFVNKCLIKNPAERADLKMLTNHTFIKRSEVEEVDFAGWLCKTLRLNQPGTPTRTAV

Sequence of DYRK2 (human) (Q92630 whole entry, looked up): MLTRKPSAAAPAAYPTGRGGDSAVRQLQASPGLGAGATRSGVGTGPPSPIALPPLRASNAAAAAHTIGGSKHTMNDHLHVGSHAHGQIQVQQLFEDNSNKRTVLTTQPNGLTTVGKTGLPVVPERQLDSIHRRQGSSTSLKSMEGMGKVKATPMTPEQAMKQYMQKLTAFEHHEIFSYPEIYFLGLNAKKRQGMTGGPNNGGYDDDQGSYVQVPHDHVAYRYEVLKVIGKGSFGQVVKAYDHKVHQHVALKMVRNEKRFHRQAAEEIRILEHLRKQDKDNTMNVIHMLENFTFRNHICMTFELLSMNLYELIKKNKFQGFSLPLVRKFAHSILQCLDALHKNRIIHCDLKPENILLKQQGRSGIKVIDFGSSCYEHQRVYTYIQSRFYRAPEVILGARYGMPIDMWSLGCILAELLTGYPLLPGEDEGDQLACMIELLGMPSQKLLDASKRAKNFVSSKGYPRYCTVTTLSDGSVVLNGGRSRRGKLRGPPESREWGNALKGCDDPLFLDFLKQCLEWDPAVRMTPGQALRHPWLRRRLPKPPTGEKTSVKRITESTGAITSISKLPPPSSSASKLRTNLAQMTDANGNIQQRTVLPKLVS
Sequence of MAP3K11 (human) (Q16584 whole entry, looked up): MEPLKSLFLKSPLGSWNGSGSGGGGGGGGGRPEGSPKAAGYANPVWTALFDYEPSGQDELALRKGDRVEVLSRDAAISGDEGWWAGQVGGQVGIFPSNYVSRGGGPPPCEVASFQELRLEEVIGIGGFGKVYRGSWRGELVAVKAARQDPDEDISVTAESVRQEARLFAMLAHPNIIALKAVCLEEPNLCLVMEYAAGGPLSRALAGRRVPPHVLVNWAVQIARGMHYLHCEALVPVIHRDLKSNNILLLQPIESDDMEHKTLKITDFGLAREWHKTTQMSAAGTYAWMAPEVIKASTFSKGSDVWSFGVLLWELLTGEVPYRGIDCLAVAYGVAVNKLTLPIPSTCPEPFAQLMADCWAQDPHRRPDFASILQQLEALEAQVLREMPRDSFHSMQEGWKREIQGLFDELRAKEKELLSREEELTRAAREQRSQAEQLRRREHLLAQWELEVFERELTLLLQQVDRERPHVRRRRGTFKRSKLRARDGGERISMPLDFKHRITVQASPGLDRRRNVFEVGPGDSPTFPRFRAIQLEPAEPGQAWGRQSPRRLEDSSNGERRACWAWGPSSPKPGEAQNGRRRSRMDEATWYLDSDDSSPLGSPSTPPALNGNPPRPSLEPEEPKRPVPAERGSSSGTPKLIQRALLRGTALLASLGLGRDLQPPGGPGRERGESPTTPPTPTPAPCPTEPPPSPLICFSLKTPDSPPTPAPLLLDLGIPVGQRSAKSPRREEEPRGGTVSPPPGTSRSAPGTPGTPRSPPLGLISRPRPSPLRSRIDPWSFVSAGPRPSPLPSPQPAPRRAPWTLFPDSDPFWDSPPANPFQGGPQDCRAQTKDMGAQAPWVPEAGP
Sequence of PAK7 (human) (Q9P286 whole entry, looked up): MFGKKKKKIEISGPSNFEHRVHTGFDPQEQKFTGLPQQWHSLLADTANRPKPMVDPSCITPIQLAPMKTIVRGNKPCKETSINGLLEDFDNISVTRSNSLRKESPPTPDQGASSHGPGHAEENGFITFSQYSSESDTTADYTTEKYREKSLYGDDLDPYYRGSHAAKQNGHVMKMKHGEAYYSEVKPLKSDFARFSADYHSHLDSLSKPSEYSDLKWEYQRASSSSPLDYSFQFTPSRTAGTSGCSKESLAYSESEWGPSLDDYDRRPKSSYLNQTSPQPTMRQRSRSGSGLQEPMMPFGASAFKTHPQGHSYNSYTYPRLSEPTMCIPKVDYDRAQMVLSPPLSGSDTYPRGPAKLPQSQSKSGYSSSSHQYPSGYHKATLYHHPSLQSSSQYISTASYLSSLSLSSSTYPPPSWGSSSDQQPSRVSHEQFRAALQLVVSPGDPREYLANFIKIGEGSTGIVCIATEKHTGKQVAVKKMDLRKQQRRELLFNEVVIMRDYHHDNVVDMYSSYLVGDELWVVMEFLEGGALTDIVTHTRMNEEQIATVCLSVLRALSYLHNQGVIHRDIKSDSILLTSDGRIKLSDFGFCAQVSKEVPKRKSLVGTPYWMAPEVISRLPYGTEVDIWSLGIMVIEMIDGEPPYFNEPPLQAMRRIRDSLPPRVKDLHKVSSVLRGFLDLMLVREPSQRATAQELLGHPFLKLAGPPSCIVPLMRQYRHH
Sequence of CSK (human) (P41240 whole entry, looked up): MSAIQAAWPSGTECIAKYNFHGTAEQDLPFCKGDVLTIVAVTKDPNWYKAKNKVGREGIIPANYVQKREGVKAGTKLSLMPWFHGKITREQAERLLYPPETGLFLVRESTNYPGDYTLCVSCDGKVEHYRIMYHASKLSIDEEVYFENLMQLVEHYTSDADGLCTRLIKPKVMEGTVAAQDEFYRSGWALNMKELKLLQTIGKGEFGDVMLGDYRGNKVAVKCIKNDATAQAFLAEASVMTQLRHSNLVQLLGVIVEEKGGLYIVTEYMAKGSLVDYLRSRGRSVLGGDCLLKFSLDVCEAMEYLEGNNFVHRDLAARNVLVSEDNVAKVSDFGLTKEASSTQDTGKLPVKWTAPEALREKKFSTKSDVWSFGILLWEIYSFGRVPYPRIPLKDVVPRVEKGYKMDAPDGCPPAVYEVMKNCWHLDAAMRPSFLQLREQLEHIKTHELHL
Sequence of MAPKAPK5 (human) (Q8IW41 whole entry, looked up): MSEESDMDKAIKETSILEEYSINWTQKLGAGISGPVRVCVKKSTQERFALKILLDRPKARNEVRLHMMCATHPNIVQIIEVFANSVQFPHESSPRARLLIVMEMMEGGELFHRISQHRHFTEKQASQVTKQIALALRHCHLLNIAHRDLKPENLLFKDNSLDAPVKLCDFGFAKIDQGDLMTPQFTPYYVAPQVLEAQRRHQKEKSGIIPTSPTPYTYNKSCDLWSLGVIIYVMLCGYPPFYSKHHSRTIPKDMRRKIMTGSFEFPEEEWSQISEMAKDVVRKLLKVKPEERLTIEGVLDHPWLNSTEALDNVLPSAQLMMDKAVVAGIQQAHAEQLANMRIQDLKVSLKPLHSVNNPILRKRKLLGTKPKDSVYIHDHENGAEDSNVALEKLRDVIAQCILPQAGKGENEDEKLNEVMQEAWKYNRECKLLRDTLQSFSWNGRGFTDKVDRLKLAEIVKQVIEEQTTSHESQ
Sequence of CSNK1D (human) (P48730 whole entry, looked up): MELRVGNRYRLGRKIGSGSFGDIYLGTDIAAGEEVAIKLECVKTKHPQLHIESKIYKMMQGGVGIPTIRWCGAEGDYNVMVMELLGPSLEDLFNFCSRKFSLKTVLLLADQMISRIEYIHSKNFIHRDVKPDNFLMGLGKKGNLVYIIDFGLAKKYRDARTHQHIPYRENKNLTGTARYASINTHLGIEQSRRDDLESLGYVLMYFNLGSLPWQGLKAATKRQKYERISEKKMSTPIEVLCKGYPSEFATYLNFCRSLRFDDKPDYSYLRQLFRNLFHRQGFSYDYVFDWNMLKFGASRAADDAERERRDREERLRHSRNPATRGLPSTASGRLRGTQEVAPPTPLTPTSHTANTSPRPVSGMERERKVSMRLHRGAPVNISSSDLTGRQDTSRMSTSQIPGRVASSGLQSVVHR
Sequence of BRSK1 (human) (Q8TDC3 whole entry, looked up): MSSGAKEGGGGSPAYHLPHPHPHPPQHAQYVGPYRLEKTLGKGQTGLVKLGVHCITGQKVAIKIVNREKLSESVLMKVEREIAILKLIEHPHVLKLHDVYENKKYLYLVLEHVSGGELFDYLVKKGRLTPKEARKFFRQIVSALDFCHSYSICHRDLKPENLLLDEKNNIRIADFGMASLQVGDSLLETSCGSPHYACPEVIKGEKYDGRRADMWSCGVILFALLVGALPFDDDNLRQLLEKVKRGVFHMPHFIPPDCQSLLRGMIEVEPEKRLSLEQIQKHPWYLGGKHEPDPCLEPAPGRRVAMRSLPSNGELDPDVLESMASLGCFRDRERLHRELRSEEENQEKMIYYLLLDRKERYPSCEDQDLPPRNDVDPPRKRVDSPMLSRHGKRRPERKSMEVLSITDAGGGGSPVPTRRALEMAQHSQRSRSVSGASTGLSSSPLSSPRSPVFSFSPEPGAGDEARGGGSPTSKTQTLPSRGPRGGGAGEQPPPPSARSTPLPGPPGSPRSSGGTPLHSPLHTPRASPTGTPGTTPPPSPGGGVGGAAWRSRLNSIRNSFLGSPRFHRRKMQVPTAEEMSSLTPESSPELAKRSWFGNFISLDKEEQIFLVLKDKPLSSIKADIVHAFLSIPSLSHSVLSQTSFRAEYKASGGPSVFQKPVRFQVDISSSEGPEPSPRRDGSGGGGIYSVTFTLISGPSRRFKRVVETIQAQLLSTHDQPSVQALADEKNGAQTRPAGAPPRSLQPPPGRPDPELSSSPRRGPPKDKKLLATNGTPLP
Sequence of PIM1 (human) (P11309 whole entry, looked up): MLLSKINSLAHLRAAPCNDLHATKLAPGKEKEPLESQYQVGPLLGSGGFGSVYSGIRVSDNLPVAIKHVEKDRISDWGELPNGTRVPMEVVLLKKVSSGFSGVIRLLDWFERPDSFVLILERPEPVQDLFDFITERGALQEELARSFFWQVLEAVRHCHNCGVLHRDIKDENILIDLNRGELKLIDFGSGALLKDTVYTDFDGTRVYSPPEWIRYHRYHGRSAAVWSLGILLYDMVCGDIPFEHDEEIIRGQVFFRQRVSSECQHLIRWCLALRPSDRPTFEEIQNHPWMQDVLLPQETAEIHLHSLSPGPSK

SMILES: CCCCCc1ccc(/C=C/[C@H](O)[C@@H](CO)NC)cc1
- residual activity (PIM1 (human); compound 1.0 µM): 95%
- residual activity (PIM1 (human); compound 10.0 µM): 95%
- residual activity (PAK7 (human); compound 0.1 µM): 104%
- residual activity (PAK7 (human); compound 1.0 µM): 100%
- residual activity (PAK7 (human); compound 10.0 µM): 101%
- residual activity (EPHA4 (human); compound 0.1 µM): 100%
- residual activity (EPHA4 (human); compound 1.0 µM): 101%
- residual activity (EPHA4 (human); compound 10.0 µM): 96%
- residual activity (MAP3K7 TAB1 (human); compound 0.1 µM): 100%
- residual activity (MAP3K7 TAB1 (human); compound 1.0 µM): 108%
- residual activity (MAP3K7 TAB1 (human); compound 10.0 µM): 111%
- residual activity (CSK (human); compound 0.1 µM): 104%
- residual activity (CSK (human); compound 1.0 µM): 101%
- residual activity (CSK (human); compound 10.0 µM): 98%
- residual activity (CSNK1D (human); compound 0.1 µM): 88%
- residual activity (CSNK1D (human); compound 1.0 µM): 87%
- residual activity (CSNK1D (human); compound 10.0 µM): 81%
- residual activity (BTK (human); compound 1.0 µM): 103%
- residual activity (BTK (human); compound 10.0 µM): 103%
- residual activity (DYRK2 (human); compound 0.1 µM): 116%
- residual activity (DYRK2 (human); compound 1.0 µM): 124%
- residual activity (DYRK2 (human); compound 10.0 µM): 119%
- residual activity (EPHB2 (human); compound 0.1 µM): 115%
- residual activity (EPHB2 (human); compound 1.0 µM): 105%
- residual activity (EPHB2 (human); compound 10.0 µM): 108%
- residual activity (MKNK2 (human); compound 0.1 µM): 111%
- residual activity (MKNK2 (human); compound 1.0 µM): 98%
- residual activity (MKNK2 (human); compound 10.0 µM): 102%
- residual activity (MAPKAPK5 (human); compound 0.1 µM): 89%
- residual activity (MAPKAPK5 (human); compound 1.0 µM): 99%
- residual activity (MAPKAPK5 (human); compound 10.0 µM): 90%
- residual activity (IKBKB (human); compound 0.1 µM): 91%
- residual activity (IKBKB (human); compound 1.0 µM): 97%
- residual activity (IKBKB (human); compound 10.0 µM): 100%
- residual activity (MAP3K11 (human); compound 0.1 µM): 102%
- residual activity (MAP3K11 (human); compound 1.0 µM): 106%
- residual activity (MAP3K11 (human); compound 10.0 µM): 109%
- residual activity (RIPK2 (human); compound 0.1 µM): 119%
- residual activity (RIPK2 (human); compound 1.0 µM): 95%
- residual activity (RIPK2 (human); compound 10.0 µM): 100%
- residual activity (MAPK9 (human); compound 0.1 µM): 85%
- residual activity (MAPK9 (human); compound 1.0 µM): 90%
- residual activity (MAPK9 (human); compound 10.0 µM): 88%
- residual activity (BRSK1 (human); compound 0.1 µM): 114%
- residual activity (BRSK1 (human); compound 1.0 µM): 111%
- residual activity (BRSK1 (human); compound 10.0 µM): 97%
- residual activity (PRKACA (human); compound 0.1 µM): 110%
- residual activity (PRKACA (human); compound 1.0 µM): 106%
- residual activity (PRKACA (human); compound 10.0 µM): 107%
- residual activity (MAP2K2 (human); compound 0.1 µM): 104%
- residual activity (MAP2K2 (human); compound 1.0 µM): 103%
- residual activity (MAP2K2 (human); compound 10.0 µM): 109%

From the kinase profiling compilation of Christmann-Franck et al. (2016)
